Laboratory results: patent publication US10538535B2, “Antitumoral compounds” (priority 2017, dated 2020)
Like-named read-outs stand apart in the source and are kept apart here.

How the values were obtained:
HT29 cells = test: cells; details: Homo sapiens, HT-29, 72 h; for CC50: read-out: LC50
Method in brief: (§1)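 Cells seeded at 5000/well, attached 18 h, then treated 72 h with ten 2/5 serial dilutions (10 to 0.003 μg/mL, 1% final DMSO) in triplicate. Growth measured by SRB staining after glutaraldehyde fixation, with time-zero plate; values from NCI algorithm and four-parameter logistic fit.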

A549 cells = test: cells; details: Homo sapiens, A549, 72 h; for CC50: read-out: LC50
Method in brief: as §1

[1] = MTMD (Maximum Tolerated Multiple Dose) determination, iv weekly x3; format: in vivo; details: mice; iv/Q7dx3
Excerpt: (§2) Female CD-1 or Athymic Nude-Fox1 nu/nu mice (Envigo) were utilized for all experiments. […] Animals were acclimated for five days prior to being individually tattoo-identified. Animal protocols were reviewed and approved according to the regional Institutional Animal Care and Use Committees.
(§3) Mice were randomly allocated into experimental groups and intravenously administered, once for the MTD (Maximum Tolerated Dose) determination or one administration a week during three consecutive weeks, for the MTMD (Maximum Tolerated Multiple Dose) determination study. The animals were administered with white formulation or with compound dissolved in the experimental formulation at different concentrations. The volume administered was always 10 mL/kg. Once administered, animals were monitored for clinical signs of systemic toxicity, changes in body weight and mortality up to 14 days after the administration.

[2] = MTD (Maximum Tolerated Dose) determination, single iv administration; format: in vivo; details: female, mouse, in vivo; mice; iv/SD
Excerpt: as §2, §3

[3] = tested on: solid and non-solid tumour cell lines; details: cited from earlier work
[4] = tested on: xenografted human tumor cell lines (breast, kidney and ovarian cancer); details: xenografted human tumor cell lines in mice, such as breast; cited from earlier work
PSN1 cells = test: cells; details: Homo sapiens, PSN1, 72 h
Method in brief: as §1

MDA-MB-231 cells = test: cells; details: Homo sapiens, MDA-MB-231, 72 h
Method in brief: as §1

Protocol for DU-145 tumors: Female athymic nu/nu mice (Harlan Laboratories Models, S. L. Barcelona, Spain or Envigo, Spain) were utilized for all experiments. Animal were housed in individually ventilated cages Sealsafe® Plus, Techniplast S.P.A.), up to ten per cage on a 12-hour light-dark cycle at 21-23° C. and 40-60% humidity. Mice were allowed free access to irradiated standard rodent diet (Tecklad 2914C) and sterilized water. Animals were acclimated for at least 5 days prior to tumor implantation with a tumor cell suspension.
Culture cells were passaged every 3 to 5 days upon reaching confluence Each male athymic mice was subcutaneously implanted (on the right flank using a 26 G needle and a 1 cc syringe) at 4-6 weeks of age with 5×10^6 DU-145 cells suspended in 0.05 mL of a solution consisting of 50% Matrigel® Matrix (Corning Incorporated Life Sciences) and 50% medium without serum or antibiotics.
Treatment tolerability was assessed by monitoring body weight evolution, clinical signs of systemic toxicity, as well as evidences of local damage in the injection site.
In xenograft studies with other cell lines: • Tumor volume was calculated using the equation (a·b^2)/2, where a: length (longest diameter) and b: width (shortest diameter) were measured in mm by using digital caliper (Fowler Sylvac, S235PAT).
Treatments producing >20% lethality and/or 20% net body weight loss were considered toxic.
Tables and figures summarize the data obtained from complete experimental groups, i.e. those groups keeping the initial number of animals, n=8-10.

## COc1c(C)cc2c(c1O)[C@@H]1[C@@H]3[C@@H]4SC[C@]5(N[C@H](CO)Cc6c5[nH]c5ccccc65)C(=O)OC[C@@H](c5c6c(c(C)c(OC(C)=O)c54)OCO6)N3[C@@H](O)[C@H](C2)N1C [Compound 4-S]
DU-145 tumors; Day 0, 4-S 1.00 mg/Kg iv Days 0, 7 and 14
  Median Tumor Volume: 126.2 mm^3
DU-145 tumors; Day 3, 4-S 1.00 mg/Kg iv Days 0, 7 and 14
  Median Tumor Volume: 102.4 mm^3
DU-145 tumors; Day 5, 4-S 1.00 mg/Kg iv Days 0, 7 and 14
  Median Tumor Volume: 119.5 mm^3
DU-145 tumors; Day 7, 4-S 1.00 mg/Kg iv Days 0, 7 and 14
  Median Tumor Volume: 149.5 mm^3
DU-145 tumors; Day 10, 4-S 1.00 mg/Kg iv Days 0, 7 and 14
  Median Tumor Volume: 216.8 mm^3
DU-145 tumors; Day 12, 4-S 1.00 mg/Kg iv Days 0, 7 and 14
  Median Tumor Volume: 181.4 mm^3
DU-145 tumors; Day 14, 4-S 1.00 mg/Kg iv Days 0, 7 and 14
  Median Tumor Volume: 237.7 mm^3
DU-145 tumors; Day 17, 4-S 1.00 mg/Kg iv Days 0, 7 and 14
  Median Tumor Volume: 204.4 mm^3
DU-145 tumors; Day 19, 4-S 1.00 mg/Kg iv Days 0, 7 and 14
  Median Tumor Volume: 210.9 mm^3
DU-145 tumors; Day 24, 4-S 1.00 mg/Kg iv Days 0, 7 and 14
  Median Tumor Volume: 300.0 mm^3
DU-145 tumors; Day 26, 4-S 1.00 mg/Kg iv Days 0, 7 and 14
  Median Tumor Volume: 378.4 mm^3
DU-145 tumors; Day 28, 4-S 1.00 mg/Kg iv Days 0, 7 and 14
  Median Tumor Volume: 587.0 mm^3
DU-145 tumors; Day 31, 4-S 1.00 mg/Kg iv Days 0, 7 and 14
  Median Tumor Volume: 650.3 mm^3
HT29 cells
  CC50: > 127 nM
A549 cells
  CC50: > 127 nM
[1]
  MTMD: 1.25 mg/kg
[2]
  MTD at 14 days: 1 mg/kg

## COc1ccc2[nH]c3c(c2c1)CCN[C@]31CS[C@@H]2c3c(OC(C)=O)c(C)c4c(c3[C@H](COC1=O)N1[C@@H]2[C@H]2c3c(cc(C)c(OC)c3O)C[C@@H]([C@@H]1O)N2C)OCO4 [PM01183]
[3]
  in vitro activity: highly potent in vitro activity
[4]
  in vivo activity: significant in vivo activity
PSN1 cells
  GI50: 3.19 nM
PSN1 cells; read-out: LC50
  CC50: 5.73 nM
PSN1 cells; read-out: TGI
  IC (TGI): 3.95 nM
HT29 cells
  GI50: 1.91 nM
  CC50: > 127 nM
HT29 cells; read-out: TGI
  IC (TGI): 4.46 nM
MDA-MB-231 cells
  GI50: 2.29 nM
MDA-MB-231 cells; read-out: LC50
  CC50: 10.2 nM
MDA-MB-231 cells; read-out: TGI
  IC (TGI): 3.95 nM
A549 cells
  GI50: 3.31 nM
  CC50: > 127 nM
A549 cells; read-out: TGI
  IC (TGI): 3.57 nM
